Patent US11998013B1, “1-(morpholin-4-yl)-3-(naphthalen-2-yloxy)propan-2-ol as an eco-friendly insecticidal agent against spodoptera littoralis (boisd.)” (priority 2023, dated 2024)
In brackets after ≈: the same amount, converted by molar mass.

Tested on: Spodoptera littoralis
Assay: Insecticidal bioassay screening (castor leaf dip, larval mortality)
Type: in vivo
Conditions: for Toxic ratio: 72 h, fenoxycarb's LC50 / compound's LC50 × 100
Method: Five concentrations (200, 100, 50, 25, 12.5 ppm) were designed for this synthetic compound and the reference fenoxycarb compound as the dynamic ingredients based on ppm via diluting the commercial formulation.
In this experiment, castor leaves are immersed in each of the previously prepared concentrations of the components for 10 seconds and then left to dry for 60 minutes. Larvae of the second and fourth instars of each checked strain are prepared with treated leaves in gauze-covered glass containers for 72 hrs. An untreated control is made in which leaves are dipped in triton x-100 and distilled water only. Then the preserved leaves were removed & fresh, untreated leaves were provided for 72 hours. Three replicates (10 larvae each) were checked for each concentration. Daily inspection was carried out for all treatments and mortality percentages were recorded 3 days (72 hours) after treatment. The average mortality percentage was corrected employing Abbott's formula. The corrected mortality rate for each of the previously synthesized compounds is statistically calculated according to Finney (1970). Through this rate, the corresponding concentration test lines (LDP lines) are assessed. Fifty and ninety percent mortality are determined, and the regression values for the checked products were previously evaluated.

Compound	LC50 (2nd instar larvae of S. littoralis, after 72 h of treatment, treated castor leaves)	Toxic ratio (2nd instar larvae)	LC50 (4th instar larvae of S. littoralis, after 72 h of treatment, treated castor leaves)	Toxic ratio (4th instar larvae)	LC50 (Spodoptera littoralis, foliar)	activity against Spodoptera littoralis (in words) (compared with the reference insecticide fenoxycarb)
CCOC(=O)NCCOc1ccc(Oc2ccccc2)cc1 [Fenoxycarb, reference compound]	2.73 ppm	100	43.231 ppm	1	2.73 µg/mL (≈ 9.06 µM)	
OC(COc1ccc2ccccc2c1)CN1CCOCC1 (stereo not drawn) [Compound 2, 1-(morpholin-4-yl)-3-(naphthalen-2-yloxy)propan-2-ol]		15.5		62.4	17.6 µg/mL (≈ 61.1 µM)	active against Spodoptera littoralis
